Laboratory results from ChEMBL document CHEMBL5724914, “Linking interpersonal differences in gut microbiota composition and drug biotransformation activity” (2024).

Experiments:
[1] = (§1) The drug is tested on WLS-073 corresponding to human gut metagenome with ENA study accession number: PRJEB37062 and ENA sample accession number: ERS12561749 for biotransformation under anaerobic condition. The drug concentrations were measured over 9 timepoints collected between 0 and 24 hours of incubation by liquid-chromatography-coupled mass spectrometry (LC–MS); settings: 2 µM
[2] = human gut metagenome, 24 h, 2 µM
[3] = as §1, with “WLS-077” for “WLS-073”, “ERS12561750” for “ERS12561749”; settings: 2 µM
[4] = human gut metagenome, 24 h, 2 µM; remark: listed apart in the source
[5] = human gut metagenome, 24 h, 2 µM; remark: listed apart in the source
[6] = human gut metagenome, 24 h, 2 µM; remark: listed apart in the source
[7] = human gut metagenome, 24 h, 2 µM; remark: listed apart in the source
[8] = human gut metagenome, 24 h, 2 µM; remark: listed apart in the source
[9] = as §1, with “WLS-039” for “WLS-073”, “ERS12561746” for “ERS12561749”; settings: 2 µM
[10] = human gut metagenome, 24 h, 2 µM; remark: listed apart in the source
[11] = as §1, with “WLS-006” for “WLS-073”, “ERS12561741” for “ERS12561749”; settings: 2 µM
[12] = as §1, with “WLS-310” for “WLS-073”, “ERS12561785” for “ERS12561749”; settings: 2 µM
[13] = human gut metagenome, 24 h, 2 µM; remark: listed apart in the source
[14] = human gut metagenome, 24 h, 2 µM; remark: listed apart in the source
[15] = as §1, with “WLS-098” for “WLS-073”, “ERS12561754” for “ERS12561749”; settings: 2 µM
[16] = human gut metagenome, 24 h, 2 µM; remark: listed apart in the source
[17] = human gut metagenome, 24 h, 2 µM; remark: listed apart in the source
[18] = human gut metagenome, 24 h, 2 µM; remark: listed apart in the source
[19] = human gut metagenome, 24 h, 2 µM; remark: listed apart in the source
[20] = as §1, with “WLS-027” for “WLS-073”, “ERS12561744” for “ERS12561749”; settings: 2 µM
[21] = human gut metagenome, 24 h, 2 µM; remark: listed apart in the source
[22] = human gut metagenome, 24 h, 2 µM; remark: listed apart in the source
[23] = as §1, with “WLS-350” for “WLS-073”, “ERS12561789” for “ERS12561749”; settings: 2 µM
[24] = human gut metagenome, 24 h, 2 µM; remark: listed apart in the source
[25] = human gut metagenome, 24 h, 2 µM; remark: listed apart in the source
[26] = as §1, with “WLS-069” for “WLS-073”, “ERS12561748” for “ERS12561749”; settings: 2 µM
[27] = as §1, with “WLS-086” for “WLS-073”, “ERS12561752” for “ERS12561749”; settings: 2 µM
[28] = human gut metagenome, 24 h, 2 µM; remark: listed apart in the source
[29] = human gut metagenome, 24 h, 2 µM; remark: listed apart in the source
[30] = human gut metagenome, 24 h, 2 µM; remark: listed apart in the source
[31] = as §1, with “WLS-010” for “WLS-073”, “ERS12561743” for “ERS12561749”; settings: 2 µM
[32] = human gut metagenome, 24 h, 2 µM; remark: listed apart in the source
[33] = human gut metagenome, 24 h, 2 µM; remark: listed apart in the source
[34] = human gut metagenome, 24 h, 2 µM; remark: listed apart in the source
[35] = as §1, with “WLS-220” for “WLS-073”, “ERS12561769” for “ERS12561749”; settings: 2 µM
[36] = human gut metagenome, 24 h, 2 µM; remark: listed apart in the source
[37] = human gut metagenome, 24 h, 2 µM; remark: listed apart in the source
[38] = as §1, with “WLS-038” for “WLS-073”, “ERS12561745” for “ERS12561749”; settings: 2 µM
[39] = as §1, with “WLS-082” for “WLS-073”, “ERS12561751” for “ERS12561749”; settings: 2 µM
[40] = as §1, with “WLS-170” for “WLS-073”, “ERS12561762” for “ERS12561749”; settings: 2 µM
[41] = human gut metagenome, 24 h, 2 µM; remark: listed apart in the source
[42] = human gut metagenome, 24 h, 2 µM; remark: listed apart in the source
[43] = human gut metagenome, 24 h, 2 µM; remark: listed apart in the source
[44] = as §1, with “WLS-007” for “WLS-073”, “ERS12561742” for “ERS12561749”; settings: 2 µM
[45] = as §1, with “WLS-370” for “WLS-073”, “ERS12561793” for “ERS12561749”; settings: 2 µM
[46] = human gut metagenome, 24 h, 2 µM; remark: listed apart in the source
[47] = as §1, with “WLS-240” for “WLS-073”, “ERS12561773” for “ERS12561749”; settings: 2 µM
[48] = as §1, with “WLS-052” for “WLS-073”, “ERS12561747” for “ERS12561749”; settings: 2 µM
[49] = human gut metagenome, 24 h, 2 µM; remark: listed apart in the source
[50] = human gut metagenome, 24 h, 2 µM; remark: listed apart in the source
[51] = human gut metagenome, 24 h, 2 µM; remark: listed apart in the source
[52] = as §1, with “WLS-090” for “WLS-073”, “ERS12561753” for “ERS12561749”; settings: 2 µM
[53] = human gut metagenome, 24 h, 2 µM; remark: listed apart in the source
[54] = human gut metagenome, 24 h, 2 µM; remark: listed apart in the source
[55] = human gut metagenome, 24 h, 2 µM; remark: listed apart in the source
[56] = human gut metagenome, 24 h, 2 µM; remark: listed apart in the source
[57] = human gut metagenome, 24 h, 2 µM; remark: listed apart in the source
[58] = human gut metagenome, 24 h, 2 µM; remark: listed apart in the source
[59] = human gut metagenome, 24 h, 2 µM; remark: listed apart in the source
[60] = human gut metagenome, 24 h, 2 µM; remark: listed apart in the source
Further: call rule not given here.

Bacterial Biotransformation [1]: Compound metabolized
Bacterial Biotransformation [2]: Compound metabolized
Bacterial Biotransformation [3]: Compound metabolized
Bacterial Biotransformation [4]: Compound NOT metabolized
Bacterial Biotransformation [5]: Compound metabolized
Bacterial Biotransformation [6]: Compound NOT metabolized
Bacterial Biotransformation [7]: Compound NOT metabolized
Bacterial Biotransformation [8]: Compound metabolized
Bacterial Biotransformation [9]: Compound metabolized
Bacterial Biotransformation [10]: Compound NOT metabolized
Bacterial Biotransformation [11]: Compound metabolized
Bacterial Biotransformation [12]: Compound metabolized
Bacterial Biotransformation [13]: Compound metabolized
Bacterial Biotransformation [14]: Compound metabolized
Bacterial Biotransformation [15]: Compound metabolized
Bacterial Biotransformation [16]: Compound metabolized
Bacterial Biotransformation [17]: Compound NOT metabolized
Bacterial Biotransformation [18]: Compound metabolized
Bacterial Biotransformation [19]: Compound NOT metabolized
Bacterial Biotransformation [20]: Compound metabolized
Bacterial Biotransformation [21]: Compound metabolized
Bacterial Biotransformation [22]: Compound NOT metabolized
Bacterial Biotransformation [23]: Compound NOT metabolized
Bacterial Biotransformation [24]: Compound metabolized
Bacterial Biotransformation [25]: Compound metabolized
Bacterial Biotransformation [26]: Compound metabolized
Bacterial Biotransformation [27]: Compound metabolized
Bacterial Biotransformation [28]: Compound metabolized
Bacterial Biotransformation [29]: Compound NOT metabolized
Bacterial Biotransformation [30]: Compound NOT metabolized
Bacterial Biotransformation [31]: Compound metabolized
Bacterial Biotransformation [32]: Compound metabolized
Bacterial Biotransformation [33]: Compound metabolized
Bacterial Biotransformation [34]: Compound metabolized
Bacterial Biotransformation [35]: Compound metabolized
Bacterial Biotransformation [36]: Compound metabolized
Bacterial Biotransformation [37]: Compound metabolized
Bacterial Biotransformation [38]: Compound metabolized
Bacterial Biotransformation [39]: Compound metabolized
Bacterial Biotransformation [40]: Compound NOT metabolized
Bacterial Biotransformation [41]: Compound NOT metabolized
Bacterial Biotransformation [42]: Compound NOT metabolized
Bacterial Biotransformation [43]: Compound NOT metabolized
Bacterial Biotransformation [44]: Compound metabolized
Bacterial Biotransformation [45]: Compound NOT metabolized
Bacterial Biotransformation [46]: Compound metabolized
Bacterial Biotransformation [47]: Compound metabolized
Bacterial Biotransformation [48]: Compound metabolized
Bacterial Biotransformation [49]: Compound metabolized
Bacterial Biotransformation [50]: Compound metabolized
Bacterial Biotransformation [51]: Compound metabolized
Bacterial Biotransformation [52]: Compound metabolized
Bacterial Biotransformation [53]: Compound metabolized
Bacterial Biotransformation [54]: Compound metabolized
Bacterial Biotransformation [55]: Compound NOT metabolized
Bacterial Biotransformation [56]: Compound NOT metabolized
Bacterial Biotransformation [57]: Compound metabolized
Bacterial Biotransformation [58]: Compound metabolized
Bacterial Biotransformation [59]: Compound NOT metabolized
Bacterial Biotransformation [60]: Compound metabolized
Structure (SMILES): O=C([O-])C[C@H](O)C[C@H](O)/C=C/c1c(C2CC2)nc2ccccc2c1-c1ccc(F)cc1.O=C([O-])C[C@H](O)C[C@H](O)/C=C/c1c(C2CC2)nc2ccccc2c1-c1ccc(F)cc1.[Ca+2] [PITAVASTATIN CALCIUM]
